Assay results as given in PubChem BioAssay (NCI).
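Dose response: 5 concentrations. Exposure: 48 h. Format: 96-well plates. Endpoint: linear interpolation; highest concentration if not reached. GI50 marks 50% less growth. TGI is the concentration that stops growth completely.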

What was measured:
Assay in all cases: growth of human tumour cells (NCI), 48 h
A498 renal = system: A498 renal
A549 NSCLC = system: A549 NSCLC
ACHN renal = system: ACHN renal
CAKI-1 renal = system: CAKI-1 renal
CCRF-CEM leukemia = system: CCRF-CEM leukemia
COLO 205 colon = system: COLO 205 colon
DU-145 prostate = system: DU-145 prostate
EKVX NSCLC = system: EKVX NSCLC
HCC-2998 colon = system: HCC-2998 colon
HCT-116 colon = system: HCT-116 colon
HCT-15 colon = system: HCT-15 colon
HL-60(TB) leukemia = system: HL-60(TB) leukemia
HOP-62 NSCLC = system: HOP-62 NSCLC
HOP-92 NSCLC = system: HOP-92 NSCLC
IGROV1 ovarian = system: IGROV1 ovarian
K-562 leukemia = system: K-562 leukemia
KM12 colon = system: KM12 colon
LOX IMVI melanoma = system: LOX IMVI melanoma
MALME-3M melanoma = system: MALME-3M melanoma
MCF7 breast = system: MCF7 breast
MDA-MB-231 breast = system: MDA-MB-231 breast
MDA-MB-435 = system: MDA-MB-435
MOLT-4 leukemia = system: MOLT-4 leukemia
NCI-H226 lung = system: NCI-H226 lung
NCI-H23 lung = system: NCI-H23 lung
NCI-H460 lung = system: NCI-H460 lung
NCI-H522 lung = system: NCI-H522 lung
OVCAR-3 ovarian = system: OVCAR-3 ovarian
OVCAR-4 ovarian = system: OVCAR-4 ovarian
OVCAR-5 ovarian = system: OVCAR-5 ovarian
OVCAR-8 ovarian = system: OVCAR-8 ovarian
RPMI-8226 leukemia = system: RPMI-8226 leukemia
RXF 393 renal = system: RXF 393 renal
SF-268 CNS = system: SF-268 CNS
SF-295 CNS = system: SF-295 CNS
SF-539 CNS = system: SF-539 CNS
SK-MEL-28 melanoma = system: SK-MEL-28 melanoma
SK-MEL-5 melanoma = system: SK-MEL-5 melanoma
SK-OV-3 ovarian = system: SK-OV-3 ovarian
SN12C renal = system: SN12C renal
SNB-19 CNS = system: SNB-19 CNS
SNB-75 CNS = system: SNB-75 CNS
SR leukemia = system: SR leukemia
SW-620 colon = system: SW-620 colon
T-47D breast = system: T-47D breast
TK-10 renal = system: TK-10 renal
U251 CNS = system: U251 CNS
UACC-62 melanoma = system: UACC-62 melanoma
UO-31 renal = system: UO-31 renal

CCOC(=O)c1c(NC(=O)c2cccc(C(F)(F)F)c2)sc2c3c(ccc12)OCN(C)C3
GI50 (A498 renal): 1630 nM | TGI (A498 renal): 3070 nM | GI50 (A549 NSCLC): 2070 nM | TGI (A549 NSCLC): 4900 nM | GI50 (ACHN renal): 1760 nM | TGI (ACHN renal): 3270 nM | GI50 (CAKI-1 renal): 1570 nM | TGI (CAKI-1 renal): 2990 nM | GI50 (CCRF-CEM leukemia): 1560 nM | TGI (CCRF-CEM leukemia): 4620 nM | GI50 (COLO 205 colon): 2210 nM | TGI (COLO 205 colon): 5080 nM | GI50 (DU-145 prostate): 1790 nM | TGI (DU-145 prostate): 3230 nM | GI50 (EKVX NSCLC): 1640 nM | TGI (EKVX NSCLC): 3240 nM | GI50 (HCC-2998 colon): 1520 nM | TGI (HCC-2998 colon): 2980 nM | GI50 (HCT-116 colon): 1950 nM | TGI (HCT-116 colon): 4740 nM | GI50 (HCT-15 colon): 1310 nM | TGI (HCT-15 colon): 2690 nM | GI50 (HL-60(TB) leukemia): 1540 nM | TGI (HL-60(TB) leukemia): 4290 nM | GI50 (HOP-62 NSCLC): 2330 nM | TGI (HOP-62 NSCLC): 6080 nM | GI50 (HOP-92 NSCLC): 1400 nM | TGI (HOP-92 NSCLC): 3050 nM | GI50 (IGROV1 ovarian): 1690 nM | TGI (IGROV1 ovarian): 3500 nM | GI50 (K-562 leukemia): 394 nM | TGI (K-562 leukemia): 1800 nM | GI50 (KM12 colon): 1680 nM | TGI (KM12 colon): 3190 nM | GI50 (LOX IMVI melanoma): 1680 nM | TGI (LOX IMVI melanoma): 3250 nM | GI50 (MALME-3M melanoma): 1980 nM | TGI (MALME-3M melanoma): 3740 nM | GI50 (MCF7 breast): 1670 nM | TGI (MCF7 breast): 3300 nM | GI50 (MDA-MB-231 breast): 1700 nM | TGI (MDA-MB-231 breast): 3330 nM | GI50 (MDA-MB-435): 1690 nM | TGI (MDA-MB-435): 3130 nM | GI50 (MOLT-4 leukemia): 1860 nM | TGI (MOLT-4 leukemia): 4540 nM | GI50 (NCI-H226 lung): 1780 nM | TGI (NCI-H226 lung): 3780 nM | GI50 (NCI-H23 lung): 1890 nM | TGI (NCI-H23 lung): 3840 nM | GI50 (NCI-H460 lung): 1640 nM | TGI (NCI-H460 lung): 3280 nM | GI50 (NCI-H522 lung): 2220 nM | TGI (NCI-H522 lung): 5550 nM | GI50 (OVCAR-3 ovarian): 1700 nM | TGI (OVCAR-3 ovarian): 3210 nM | GI50 (OVCAR-4 ovarian): 1790 nM | TGI (OVCAR-4 ovarian): 3610 nM | GI50 (OVCAR-5 ovarian): 1670 nM | TGI (OVCAR-5 ovarian): 3150 nM | GI50 (OVCAR-8 ovarian): 2260 nM | TGI (OVCAR-8 ovarian): 5240 nM | GI50 (RPMI-8226 leukemia): 1540 nM | TGI (RPMI-8226 leukemia): 4270 nM | GI50 (RXF 393 renal): 1470 nM | TGI (RXF 393 renal): 3020 nM | GI50 (SF-268 CNS): 1890 nM | TGI (SF-268 CNS): 3790 nM | GI50 (SF-295 CNS): 1780 nM | TGI (SF-295 CNS): 3350 nM | GI50 (SF-539 CNS): 1660 nM | TGI (SF-539 CNS): 3190 nM | GI50 (SK-MEL-28 melanoma): 1710 nM | TGI (SK-MEL-28 melanoma): 3140 nM | GI50 (SK-MEL-5 melanoma): 1770 nM | TGI (SK-MEL-5 melanoma): 3270 nM | GI50 (SK-OV-3 ovarian): 2070 nM | TGI (SK-OV-3 ovarian): 4310 nM | GI50 (SN12C renal): 1800 nM | TGI (SN12C renal): 3530 nM | GI50 (SNB-19 CNS): 1790 nM | TGI (SNB-19 CNS): 3640 nM | GI50 (SNB-75 CNS): 1530 nM | TGI (SNB-75 CNS): 3280 nM | GI50 (SR leukemia): 463 nM | TGI (SR leukemia): 4580 nM | GI50 (SW-620 colon): 873 nM | TGI (SW-620 colon): 2270 nM | GI50 (T-47D breast): 1940 nM | TGI (T-47D breast): 4570 nM | GI50 (TK-10 renal): 1910 nM | TGI (TK-10 renal): 3810 nM | GI50 (U251 CNS): 1850 nM | TGI (U251 CNS): 3930 nM | GI50 (UACC-62 melanoma): 1680 nM | TGI (UACC-62 melanoma): 3170 nM | GI50 (UO-31 renal): 1530 nM | TGI (UO-31 renal): 2940 nM
